Measured values: PubChem BioAssay AID179 (DTP/NCI, 2004)
Calls of active or inactive are those of the source.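 Rule for the calls: active = compounds giving half or more protection of infected cells from virus-caused growth loss, again on retest; inactive = the rest.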 Where a SMILES comes first, the peptide text is derived from it.

Tested on: CEM cells HIV-1 protection, formazan growth assay
Assay: NCI AIDS Antiviral Assay
Conditions: for IC50: measured here: growth of uninfected CEM cells
Method in brief: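 Five concentrations of each compound were applied to infected and uninfected human CEM cells. Protection from HIV-1 was judged from growth measured with a soluble formazan assay.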

SMILES | outcome | EC50 | IC50
CC(C)CC(NC(=O)C(Cc1ccc(O)cc1)NC(=O)C(C)N)C(=O)NCC(=O)NC(CCCCN)C(=O)NC(CCCCN)C(=O)NC(C(=O)NC(C)C(=O)NC(C(=O)NC(CC(N)=O)C(=O)O)C(C)O)C(C)C (stereo unspecified) (H-AYLGKKVATN-OH; configuration not given here) | inactive | – | –
O=C1/C(=C/c2ccc(OC(=O)c3ccccc3)cc2)CCC/C1=C\c1ccc(OC(=O)c2ccccc2)cc1 | – | > 100 µM | > 100 µM
O=c1nc2n(cc1F)C1OC(CCl)C(O)C1O2 (stereo unspecified) | – | > 200 µM | > 200 µM
COc1ccc(NC(=S)N/N=C(\c2ccccc2)c2ccccn2)cc1 | – | > 0.2 µM | 0.0912 µM
O=C(CN1CCOCC1)c1ccc2c(c1)oc(=O)n2CCN1CCOCC1 | – | > 200 µM | > 200 µM
Cc1nc2c(sc3nc4ccccc4n32)c(=O)[nH]1 | – | > 100 µM | > 100 µM
COC(=O)C1=CCC(n2cc(C)c(=O)[nH]c2=O)CC1 (stereo unspecified) | – | > 257 µM | > 257 µM
O=C(O)c1nc2sc(C(=O)O)nc2s1 | inactive | – | –
CN(C)C(=O)COc1ccc(Cl)cc1Cl | – | > 200 µM | > 200 µM
C[C@@H]1C2(O)CC34CC(=O)OC3(C[C@@H](O)[C@H]4C)C1(C)CO2 (stereo partly specified) | – | > 891 µM | > 891 µM
Clc1cc2nsnc2c(Cl)n1 | – | > 457 µM | 2.75 µM
CCOC1=C(c2ccccc2)Oc2cccnc2-n2cccc21 | – | > 200 µM | 138 µM
N.N.N.N.N.O=S(=O)([O-])S(=O)(=O)[O-].[Co+3] | – | > 42.7 µM | > 42.7 µM
Clc1cc(C(c2cc(Cl)sc2Cl)c2cc(Cl)sc2Cl)c(Cl)s1 | – | > 50.1 µM | > 50.1 µM
COc1ccc2c(c1OC)OC1CNc3cc(C)c(C)cc3N=C1C2 (stereo unspecified) | – | 1.35 µM | 4.57 µM
N=N/C(=C\c1c(O)[nH]c2ccccc12)c1ccccc1 | – | > 200 µM | 3.31 µM
C=CCNC(=O)NCCCCC(NC(C)=O)C(=O)NCc1ccccc1 (stereo unspecified) | – | > 692 µM | > 692 µM
Oc1cccc(C2SCc3nc4ccccc4n32)c1 (stereo unspecified) | – | > 126 µM | 46.8 µM
COC(=O)CN1CCN(c2cccc3c2CCCC3)CC1 | – | > 200 µM | 64.6 µM

SMILES | outcome | EC50 | IC50
CN1c2c(C(=O)Nc3nccs3)nn(-c3ccccc3)c2-c2ccccc2S1(=O)=O | – | > 22.9 µM | > 22.9 µM
Fc1ccc(N=C2C=CC(=Nc3ccc(F)cc3)c3ccccc32)cc1 | inactive | – | –
COc1cc2c(c([N+](=O)[O-])c1)NC(=O)CS2 | – | > 200 µM | 79.4 µM
COc1ccc(/C=C2\CCOC2=O)cc1OC | – | > 776 µM | 282 µM
O=C(NC1=NCC(CN2CCN(c3ccccc3)CC2)O1)Nc1ccccc1 (stereo unspecified) | – | > 200 µM | 155 µM
O=C(O)CCCNS(=O)(=O)c1ccccc1 | inactive | – | –
O=c1[nH]nc(-c2ccccc2)n1-n1cccc1 | – | > 200 µM | 97.7 µM
Cc1cc(C)c(S(=O)(=O)ONC(=O)OC(C)(C)C)c(C)c1 | inactive | – | –
CCCCCCCCCCCCC1=C(OC)C(=O)c2cccnc2C1=O | inactive | – | –
O=C(O)CN1C(=O)CSC1=S | – | > 1290 µM | 794 µM
Clc1cccc(NC2=NCCN=C(Nc3cccc(Cl)c3)SS2)c1 | inactive | – | –
CCc1ccccc1NC(=O)C(=O)CC(=O)c1sc(Nc2ccccc2)nc1C | – | > 89.1 µM | 53.7 µM
Nc1nc(Cl)cc(NCC2(CO)CCC(O)C2)n1 (stereo unspecified) | – | > 200 µM | > 200 µM
CCCCCCCCCC(O)CC(=O)c1c(O)cccc1O (stereo unspecified) | – | > 200 µM | 32.4 µM
CN(C)c1n/c(=N/c2ncn[nH]2)ss1 | inactive | – | –
C#CCC(N)(CO)C(=O)O (stereo unspecified) | inactive | – | –
CC(=O)[O-].O=S(=O)(Nc1ncccn1)c1ccc(N=Cc2ccccc2O)cc1.O=S(=O)(Nc1ncccn1)c1ccc(N=Cc2ccccc2O)cc1.[Cu+2] | – | > 200 µM | 38 µM
CC1OC=CC(=O)C1O (stereo unspecified) | inactive | – | –
Cc1sc(N)c(S(=O)(=O)c2ccccc2)c1C | – | 166 µM | 195 µM
